From patent EP0372889A1, “Doxorubicin solutions” (Bristol-Myers Squibb Company, priority 1988, dated 1990)
Where a name gives a salt, the structure may show the parent alone. Read-outs that look alike come from different tables or passages of the source.

Legend:
[1] = Solubility of doxorubicin HCl in non-aqueous solvents; format: physicochemical; details: for solubility: organic solvent or mixture
Description: Doxorubicin HCl at room temperature has a solubility of less than 5 mg/ml in propylene glycol, 1,2-dihydroxybutane and 1,3-dihydroxypropane. […] Solubility of doxorubicin HCl can be increased to about 20 mg/ml in the above-mentioned solvents by addition of 5-10% (v/v) water.

[2] = format: physicochemical
Excerpt: It is also necessary for optimum stability of the solutions, especially at elevated temperatures which may be encountered at some time during the life of the product, e.g. during shipping, to utilize an antioxidant. We have tested a number of antioxidants including α-tocopherol, tert-butylhydroquinone (TBHQ), sodium formaldehyde bisulfite, butylated hydroxy anisole (BHA), butylated hydroxy toluene (BHT), sodium bisulfite and propyl gallate. […] This finding was disclosed and claimed in our EP-A-88111434.2 and in co-pending U.S. application Serial Number 246,602 filed September 20, 1988 and incorporated by reference herein in their entirety. […] Generally, an amount of sodium acetone bisulfite is employed in the range of about 0.1 to 20 mg/ml with about 2 mg/ml being most preferred.
Despite reports of potency losses of doxorubicin HCl solutions via photolytic degradation and adsorption to container walls, we have not noted any significant loss of potency due to container adsorption or sensitivity to normal room light with our solutions. Glass vials may conveniently be used as the container.
As an example of a stable non-aqueous solution of doxorubicin, 20 mg/ml of doxorubicin hydrochloride, 0.2 mg/ml citric acid (anhydrous), 2.0 mg/ml of sodium acetone bisulfite and a solvent medium consisting of deaerated propylene glycol/water (90:10 v/v) are added to a Type 1 flint vial, the vial is purged with nitrogen and then sealed with a suitable teflon-coated stopper. […] Substantially equivalent results are obtained when 1,2-dihydroxybutane and 1,3-dihydroxypropane solvent systems are used.

[3] = cited from earlier work

Which “chemical stability of solutions” value ([1]; glycerol formal, 2-pyrrolidinone and 1-methyl-2-pyrrolidinone) does the source give for COc1cccc2c1C(=O)c1c(O)c3c(c(O)c1C2=O)C[C@@](O)(C(=O)CO)C[C@@H]3O[C@H]1C[C@H](N)[C@H](O)[C@H](C)O1 [Doxorubicin HCl, doxorubicin hydrochloride] here?
Its value is “chemically unstable”.

And the solubility ([1]; glycerol formal, pyrrolidinones, glycerol formal, 2-pyrrolidinone and 1-methyl-2-pyrrolidinone, read-out: solution concentration produced)?
The solubility was no less than 5000 µg/mL.

And the solubility ([1]; glycols with 5-10% water, propylene glycol, 1,2-dihydroxybutane, 1,3-dihydroxypropane with addition of 5-10% (v/v) water, read-out: Solubility)?
Its solubility is roughly 20000 µg/mL.

What about the solubility ([1]; propylene glycol, butanediol, propanediol, room temperature, in propylene glycol, 1,2-dihydroxybutane and 1,3-dihydroxypropane, read-out: solubility) of the same compound?
The solubility was less than 5000 µg/mL.

And the solubility ([1]; propylene glycol, butanediol, propanediol, same solvents, short-term (0.5-1 hour) warming (60-80°C) with vigorous stirring, read-out: solubility)?
The solubility was roughly 10000 µg/mL.

And the “physical stability of solution on cold storage” value ([1]; stored at 4°C to -20°C, seeding with crystalline doxorubicin HCl does not affect crystallization)?
The value was “remains in solution”.

What about the potency loss ([1]; upon short-term (0.5-1 hour) warming (60-80°C) in propylene glycol, 1,2-dihydroxybutane, 1,3-dihydroxypropane) of the same compound?
Its potency loss is “no potency loss”.

What about the solubility ([1]; various organic solvents, with heating, polyethylene glycols, ethanol, benzyl alcohol, dimethylisosorbide, ethyl lactate, Solketol, Cremophors, Pluronics, read-out: Solubilities) of the same compound?
The solubility was less than 5000 µg/mL.

And the potency retained ([2]; 20 mg/ml, 0.2 mg/ml citric acid, 2.0 mg/ml sodium acetone bisulfite, propylene glycol/water (90:10 v/v), nitrogen purged, 2 weeks at 40°C, 20160 min)?
The potency retained was 97.2%.

And the potency retained ([2]; same solution, 4 weeks at 40°C, 40320 min)?
The potency retained was 93.4%.

And the potency retained ([2]; same solution, 12 weeks at 40°C, 120960 min)?
The potency retained was 88.2%.

What about the “acceptable shelf-life (≦10% potency loss)” value ([2]; same solution, 37°C) of the same compound?
The value was “at least four”.

And the “acceptable shelf-life (≦10% potency loss)” value ([2]; same solution, room temperature)?
Its value is “at least 18 months”.

And the stable ([3]; commercial preservative-free ready-to-use aqueous solution, 4°C, manufacturer)?
Its stable is 18 months.

And the “undesirable and potentially toxic degradation products” value ([3]; commercial ready-to-use aqueous solution, at the end of 18 months at 4°C, 788400 min)?
The value was “up to 10%”.

And the remains stable ([3]; reconstituted solution in 0.9% NaCl solution, room temperature or 5°C, Ketcyhum, et al.)?
The remains stable was “seven”.

With O=S(=O)(O)CO [sodium formaldehyde bisulfite] as the compound, how does the “stabilization of doxorubicin solutions by antioxidant” value (shortened to “stabilization”) [2] read?
Its value is “resulted in the desired stability”.

Which “stabilization” value [2] does the source give for Cc1c(C)c2c(c(C)c1O)CCC(C)(CCCC(C)CCCC(C)CCCC(C)C)O2 (stereo not drawn) [α-tocopherol] here?
The value was “resulted in the desired stability”.

With CC(C)(C)c1cc(O)ccc1O [tert-butylhydroquinone] as the compound, how does the “stabilization” value ([2]; elevated temperatures as well as room temperature (25°C) or below) read?
Its value is “resulted in the desired stability”.
